Results published in patent US11103525B2, “Idoxuridine and its analogs as neuroprotectans for the treatment of parkinsonism” (priority 2017, dated 2021).

Test system: GPR37-tGFP overexpressing cells
Experiment: Cytoprotection against H2O2, GPR37-tGFP overexpressing cells
Format: cell-based, mouse
Conditions: in-well H2O2 0.00025%, compared with WT cells
Text: FIG. 10: Cytoprotection of Idoxuridine against […]. H2O2 reduces cell viability by increasing oxidative stress. This effect was counteracted by idoxuridine in GPR37-tGFP overexpressing cells (A) and WT (B) cells. […] In-well H2O2 concentration used was 0.00025%. […]

For `O=c1[nH]c(=O)n([C@H]2C[C@H](O)[C@@H](CO)O2)cc1I` [Idoxuridine, 2′-deoxy-5-iodouridine], the “effect on H2O2-induced reduction of cell viability” value was “significantly stronger”.
